In patent US6346620B1, “Methods for preparation of 2-(4-(4-(4,5-dichloro-2-methylimidazol-1-yl)butyl)-1-piperazinyl)-5-fluoropyrimidine and salts thereof” (Laboratories del Dr. Esteve S.A., priority 1997, dated 2002):

Columns and labels:
[1] = system: nausea induced by cisplatin; assay: Antiemetic activity: nausea/vomiting induced by cisplatin in ferrets; type: in vivo; settings: ferret; for Number of episodes of nausea/vomiting: cisplatin 10 mg/kg i.v., 240 min observation
Protocol: (§1) The compounds obtained in the invention are studied with regard to their effects on nausea in ferrets according to a method described by Costall et al. (Neuropharmacology, 1986, 25, 959-961). Ferrets of both sexes (0.7-1.4 kg) are individually housed at 21±1° C. and fed normally. The compound of the example or a vehicle is subsequently administered to them subcutaneously as pretreatment 15 minutes before the administration of copper sulfate (CuSO4.5H2O; 100 mg/kg by the intragastric route) or cisplatin (10 mg/kg i.v. by means of a permanent jugular cannula). The animals are observed at the beginning of vomiting and then for 30 minutes (copper sulfate) or 240 minutes (cisplatin). Vomiting is characterized by rhythmic abdominal contractions, either associated with the expulsion of solid or liquid matter (vomit) or not associated with the passage of matter via the mouth (nausea). The number of episodes and nausea or vomiting are recorded.

[2] = system: nausea caused by the movement (travel sickness); assay: Travel sickness in the shrew (Suncus murinus); type: in vivo; settings: for Number of episodes of nausea/vomiting: motion 1 hertz 4 cm for 20 min
Description: The compound of Example 3 is studied with regard to its effect on travel sickness, (vertigo) induced in, Suncus murinus according to the method described by N. Matsuki et al. (“Mechanisms and Control of Emesis”, John Libbey Emotex, 1992, 233, 323-329). Males of the species Suncus murinus weighing 58-72 grams are housed in groups of 3 and are allowed free access to solid food and to water. One hour before the test, they are presented with cat food in their housing cage. At the beginning of the test, the animals receive the treatment with the test product by the i.p. route. After 30 minutes, they are placed individually in the test boxes (15×15×10 cm). The boxes are connected to a motor which displaces them over several wheels forward and backward with a frequency which induces nausea in them (travel sickness). This frequency is 1 hertz with an amplitude of displacement of 4 cm. The animals are left in the test boxes for 30 minutes, in order for them to become used to their surroundings, and then the active movement of the cages is begun for 20 minutes, in order to determine the presence or the absence of nausea (without passage of matter from the digestive tract) and of vomiting (with passage of matter from the digestive tract).

gastric acid secretion = assay: Inhibitory activity with regard to gastric acid secretion (Shay procedure); type: in vivo; settings: Rattus norvegicus, intraduodenal; male Wistar rats, pylorus ligation, i.d., 2 hours; read-out: ED50 (inhibition of gastric acid secretion)
Protocol: This activity is determined by means of the Shay procedure (H. Shay et al., Gastroenterology, 1945, 5, 43; Visscher et al., J. Pharmac. Exp. Ther., 1954, 110, 188).
Male Wistar rats weighing from 200 to 250 g are used in this test, which rats are deprived of food up to the day preceding the test, with free access to water. Batches of 4 animals each are used, at least.
The rats are anesthetized with ethyl ether, a laparotomy is performed on them and their pylori are tied, and then an abdominal incision is made. The products are administered intraduodenally (i.d.) before suturing the abdominal incision. The dose administered in the first test is 40 mg/kg and then the median effective dose (ED50) is determined. The vehicle used is gum arabic at 5% w/v in doubly-distilled water.
Two hours after ligating the pylori, the rats are sacrificed by prolonged anesthesia with ethyl ether and the volume of gastric juice is measured. The total acidity is determined by means of a pH meter equipped with an automatic burette. For each product and for each dose tested, the percentage of inhibition of gastric acid secretion is determined with respect to a reference batch.

[3] = system: nausea induced by copper sulfate; assay: Antiemetic activity: nausea/vomiting induced by copper sulfate in ferrets; type: in vivo; settings: ferret; for Number of episodes of nausea/vomiting: copper sulfate 100 mg/kg intragastric, 30 min observation
Protocol: as §1

[4] = system: conditioned avoidance response; assay: Test of conditioned avoidance response (C.A.R.); type: in vivo; settings: Rattus norvegicus, po; male Wistar rats, p.o., 45 minutes before the study; read-out: ED50 (suppression of conditioned avoidance response)
Protocol: In this test, use is made of male Wistar rats weighing 200 g trained to leap a barrier in a Letica shuttle box (references LI 910 and LI 2700) during the 30 seconds which follow their introduction into the box. Products having an anxiolytic or tranquilizing activity suppress the conditioned avoidance response. Training: first day, 11 tests at intervals of 3 minutes. Electric shock in the paws at 30 seconds (5 mA, 0.1 s, 10 s). Second and third days: two daily tests, only with the selected rats {some of the grades of the first day (except the first test) >14}. Day of the test: groups formed by the selected rats. Oral administration of the product or vehicle 45 minutes before the beginning of the study.

5HT1A serotonin receptor = biological target: T1, 5HT1A serotonin receptor (Rattus norvegicus, UniProt P19327); assay: Binding to the 5HT1A serotonin receptor (rat hippocampus homogenate, [3H]-8-HO-DPAT); settings: 15 minutes at 37° C., read-out: Ki (inhibition constant)
T1 construct: A rat hippocampus homogenate is used; from tissue; host or cells: rat hippocampus homogenate
T1 sequence (P19327 1-422): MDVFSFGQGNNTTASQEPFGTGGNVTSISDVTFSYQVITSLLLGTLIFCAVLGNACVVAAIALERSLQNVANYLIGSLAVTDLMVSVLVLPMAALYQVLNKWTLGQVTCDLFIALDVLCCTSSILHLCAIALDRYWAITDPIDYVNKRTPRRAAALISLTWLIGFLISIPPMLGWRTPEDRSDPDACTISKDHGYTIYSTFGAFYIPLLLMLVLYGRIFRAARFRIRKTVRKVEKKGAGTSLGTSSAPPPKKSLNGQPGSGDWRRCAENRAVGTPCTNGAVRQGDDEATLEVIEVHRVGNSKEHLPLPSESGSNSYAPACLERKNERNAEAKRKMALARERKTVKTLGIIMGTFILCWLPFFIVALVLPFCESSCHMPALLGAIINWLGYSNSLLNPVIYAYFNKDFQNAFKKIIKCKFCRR
Protocol: A rat hippocampus homogenate is used, a modification of the method of S. J. Peroutka (Neurochem., 1986, 47, 529) being followed. [^3H]-8-HO-DPAT is used as radioligand and serotonin is used to measure the nonspecific binding. The incubation time is 15 minutes at a temperature of 37° C. The radioligand bonded to the protein is separated by filtration through glass fiber filters and the radioactivity retained on the filter is determined by liquid scintillation. The inhibitIon constant (Ki, nM) is calculated by nonlinear regression analysis using the EBDA/LIGAND program (Munson and Rodbard, Analytical Biochemistry, 1980, 107, 220).

Ki (5HT1A serotonin receptor): 0.0194 µM
Structure (SMILES): Cc1nc(Cl)c(Cl)n1CCCCN1CCN(c2ncc(F)cn2)CC1.O=C(O)CC(O)(CC(=O)O)C(=O)O [Example 3, 2-{4-[4-(4,5-dichloro-2-methylimidazol-1-yl)butyl]piperazin-1-yl}-5-fluoropyrimidine citrate]
Number of episodes of nausea/vomiting ([1]; 0.001 mg/kg s.c.): 13.8 ± 2.4 (NS) | Number of episodes of nausea/vomiting ([1]; 0.01 mg/kg s.c.): 6.5 ± 3.1 (*) | Number of episodes of nausea/vomiting ([1]; 0.1 mg/kg s.c.): 3.1 ± 2.9 (*) | Number of episodes of nausea/vomiting ([1]; 1 mg/kg s.c.): 3.0 ± 2.0 (*) | Effect on nausea induced by cisplatin (in words) ([1]; s.c.): opposing the nausea induced by cisplatin | Effect on nausea caused by the movement (travel sickness) (in words) ([2]; doses of 0.01 to 10 mg/kg i.p.): markedly inhibits the nausea caused by the movement (travel sickness) | Number of episodes of nausea/vomiting ([2]; 0.001 mg/kg i.p.): 8.38 ± 1.41 (NS) | Number of episodes of nausea/vomiting ([2]; 0.01 mg/kg i.p.): 0.33 ± 0.21 (*) | Number of episodes of nausea/vomiting ([2]; 0.1 mg/kg i.p.): 2.17 ± 0.83 (*) | Number of episodes of nausea/vomiting ([2]; 1.0 mg/kg i.p.): 0.33 ± 0.21 (*) | Number of episodes of nausea/vomiting ([2]; 10.0 mg/kg i.p.): 0 ± 0 (*) | ED50 (gastric acid secretion): 1.9 mg/kg | Number of episodes of nausea/vomiting ([3]; 0.001 mg/kg s.c.): 7.4 ± 1.2 (NS) | Number of episodes of nausea/vomiting ([3]; 0.01 mg/kg s.c.): 3.2 ± 0.6 (*) | Number of episodes of nausea/vomiting ([3]; 0.1 mg/kg s.c.): 1.0 ± 0.2 (*) | Number of episodes of nausea/vomiting ([3]; 1 mg/kg s.c.): 1.7 ± 0.3 (*) | Effect on nausea induced by copper sulfate (in words) ([3]; s.c.): capable of altering the nausea induced by copper sulfate | ED50 [4]: 9.7 mg/kg
